Assay results taken from a melting point compilation (Tetko et al.; mined from patent text by program, amines drawn as free bases though some values may be those of a salt).

melting point | SMILES
231 to 232 °C | N#CCn1c2ccccc2c2nc3ccccc3nc21
133 to 135 °C | CCCC(=O)Nc1ccc2oc3c(c2c1)CCCC3
140 to 142 °C | COc1cc2c(c(-c3cc(Cl)ccc3Cl)c1)OC(CN)C2 (stereo not drawn)
219 to 220 °C | NC(=O)c1c(Cl)c(-c2ccccc2)n2c1CN(C(=O)N1CCOCC1)CC2
114 to 115 °C | O=[N+]([O-])c1cccc(C2=NOCCS2)c1
97 to 100 °C | Clc1cc(Cl)n2nc(SCc3ccccc3)nc2n1
229 °C | CSc1ccc(-c2c(C)n[nH]c(=O)c2-c2ncc(Cl)cc2Cl)nc1
235 °C | Cc1[nH]c(C=NNC(=O)c2ccc(O)cc2)c(C)c1Br
154 to 155 °C | O=C(CCCCl)Nc1ccc2c(c1NC(=O)CCCCl)C(=O)c1ccccc1C2=O
165 to 167 °C | FC(F)(F)Oc1ccc2[nH]c(-c3ccco3)nc2c1
149 to 150 °C | CCOC(OCC)c1cc(NC(c2ccccc2)(c2ccccc2)c2ccccc2)c(F)c(C2CCCO2)n1 (stereo not drawn)
217 to 220 °C | CC(C)(C)c1cc(SC(Sc2cc(C(C)(C)C)c(O)c(C(C)(C)C)c2)Sc2cc(C(C)(C)C)c(O)c(C(C)(C)C)c2)cc(C(C)(C)C)c1O
179 to 180 °C | CCCN(Cc1ccc(-c2ccccc2C(=O)C(=O)O)cc1)c1ncccc1C(=O)O
84 to 86 °C | CN(CCCN1c2ccccc2CCc2ccccc21)C(=O)c1cccnc1
204 to 207 °C | O=C(O)CNC(=O)NC(=O)C(CC1CCCC1)c1ccc(Cl)c(Cl)c1 (stereo not drawn)
106 to 110 °C | CCOC(=O)Cn1c(C)cnc(NCC(F)(F)c2ccccc2)c1=O

melting point | SMILES
130 to 132 °C | COc1ccc2c(cccc2[C@H]2CO[C@H](CCCNC(=O)OCc3nccn3C(c3ccccc3)(c3ccccc3)c3ccccc3)OC2)c1
179 to 181 °C | Clc1cc(Cl)c(OCOCOc2c(Cl)cc(Cl)cc2Cl)c(Cl)c1
90 °C | CSC1Cc2cc(Cl)ccc2C1=O (stereo not drawn)
170 to 172 °C | COc1cc(COc2nn(-c3ccccc3)cc2/C=C/c2nc(C(=O)O)cs2)ccc1OCc1nc(-c2ccco2)oc1C
110 to 111 °C | C=CCc1cc(Nc2ccn(-c3ccccc3)n2)cc(CC=C)c1OC(C)=O
224 to 226 °C | O=C(Nc1ccc(I)cc1)N[C@H]1C[C@H](C(=O)O)Nc2cc(Cl)cc(Cl)c21 (relative stereo)
61 to 63 °C | CC(C)(C)c1cc(SCc2cccc(C#N)c2)cc(C(C)(C)C)c1O
112 to 113 °C | O=C(Cc1ccc(OCc2ccccc2)cc1)P(=O)(O)O
120 to 121 °C | O=C1C2=C(C(=O)N1CCO)c1ccccc1CC2
237 to 240 °C | O=c1c(Cn2cncn2)cc2cc(Br)ccc2n1-c1ccccc1
128 to 130 °C | Cn1c2ccccc2c2sc3c(C=O)cccc3c21
200 °C | CCOC(=O)C1=C(c2cccs2)Nc2n[nH]cc2C1c1ccccc1Cl (stereo not drawn)
80 °C | CNC(=S)NS(=O)(=O)c1cc(CCNC(=O)C=Cc2cccs2)ccc1OCC1CCCCO1 (stereo not drawn)
206 to 207 °C | C[C@]1(COc2ccc(N3CCN(Cc4ccc(C(F)(F)F)cc4)CC3)cc2)Cn2cc([N+](=O)[O-])nc2O1
107 to 108 °C | COC(=O)CCCCC(O)c1ccc2c(c1)CCCC2 (stereo not drawn)
108 to 110 °C | CCOC(=O)c1cc(Br)c(OCCO)c(-c2cccc(Cl)c2)c1

SMILES | melting point
N#Cc1ccccc1Cn1cc(C(=O)C(=O)NC2=CC(=O)OC2)c2ccccc21 | 229 to 231 °C
COC(=O)C=C1CC(=O)N(c2ccccc2)c2cc(Cl)ccc2N1 | 199 to 201 °C
CN1CCC23c4c5ccc(O)c4OC2C(OC2OC(C(=O)O)C(O)C(O)C2O)C=CC3C1C5 (stereo not drawn) | 240 to 243 °C
CCc1cc2c(s1)-n1c(nnc1C1CCCCC1)CN=C2c1ccccc1Cl | 116 to 119 °C
Fc1ccc(-c2ccn(C3CC4CCC(C3)N4)c2-c2ccncc2)cc1 (stereo not drawn) | 204 to 205 °C
OC1CCN(c2ccccc2)C12CCNCC2 (racemic) | 141 to 144 °C
